From patent US8945639B2, “Treatment of inflammatory bowel disease” (Provexis (IBD) Limited, priority 2003, dated 2015) come the findings set out here.

B1: fetuin: fetuin, glycoconjugate tested at 50 μg/ml (protein, UniProt P12763 19-359, looked up)
Alpha-2-HS-glycoprotein: IPLDPVAGYKEPACDDPDTEQAALAAVDYINKHLPRGYKHTLNQIDSVKVWPRRPTGEVYDIEIDTLETTCHVLDPTPLANCSVRQQTQHAVEGDCDIHVLKQDGQFSVLFTKCDSSPDSAEDVRKLCPDCPLLAPLNDSRVVHAVEVALATFNAESNGSYLQLVEISRAQFVPLPVSVSVEFAVAATDCIAKEVVDPTKCNLLAEKQYGFCKGSVIQKALGGEDVRVTCTLFQTQPVIPQPQPDGAEAEAPSAVPDAAGPTPSAAGPPVASVVVGPSVVAVPLPLHRAHYDLRHTFSGVASVESSSGEAFHVGKTPIVGQPSIPGGPVRLCPGRIRYFKI
B2: asialofetuin: asialofetuin, glycoconjugate tested at 50 μg/ml (protein, UniProt P12763 19-359, looked up)
Alpha-2-HS-glycoprotein: IPLDPVAGYKEPACDDPDTEQAALAAVDYINKHLPRGYKHTLNQIDSVKVWPRRPTGEVYDIEIDTLETTCHVLDPTPLANCSVRQQTQHAVEGDCDIHVLKQDGQFSVLFTKCDSSPDSAEDVRKLCPDCPLLAPLNDSRVVHAVEVALATFNAESNGSYLQLVEISRAQFVPLPVSVSVEFAVAATDCIAKEVVDPTKCNLLAEKQYGFCKGSVIQKALGGEDVRVTCTLFQTQPVIPQPQPDGAEAEAPSAVPDAAGPTPSAAGPPVASVVVGPSVVAVPLPLHRAHYDLRHTFSGVASVESSSGEAFHVGKTPIVGQPSIPGGPVRLCPGRIRYFKI
modifications: desialylated
notes: asialofetuin, glycoconjugate tested at 50 μg/ml

For the experiment, the system named is agglutinating mucosally-associated E. coli (haemagglutination of human red blood cells). Description: Haemagglutination assays with different oligosaccharides/fibres (Example 1). It is filed as cell-based. The following applies: agglutinating E. coli from IBD subjects, 'in all cases', mannose, fucose, galactose 0.4M, fetuin, asialofetuin 50 μg/ml. As to the method: Blood was taken from a healthy human volunteer and placed into a heparinised container. The blood was washed three times in PBS by centrifugation at 1000 rpm for 5 minutes and by resuspending the pellet in fresh PBS. After the third wash, the pellet was resuspended in PBS so as to give a 1% red blood cell solution. Bacteria identified as E. coli, and 5 strains of CD-ileal associated E. coli were grown so as to obtain maximum fimbrial expression (see above). Bacteria were suspended in saline to give an OD equal to MacFarland standard 5. Doubling dilutions of bacterial suspension were performed in 96 well U-bottomed haemagglutination plates (Dynex technologies) to a final volume of 100 μl per well. 50 μl of 1% rbcs was added to each well. The plate was tapped gently to mix the contents of the wells and was left at room temperature for approximately 2 hrs.
Further characterisation of bacterial haemagglutination was carried out using a panel of oligosaccharides/fibers. The structures tested were: mannose (0.4M), fucose (0.4M), galactose (0.4M), fetuin (50 μg/ml), asialofetuin (50 μg/ml), bovine submaxillary mucin (BSM), hydrolysed BSM, ovine submaxilliary mucin (OSM), lactose, lactulose, siayl Tn, GalGalNAc, N-Glycolyneuraminic acid, N-acetylneuraminic acid, 3′-n-acetylneuraminyl-lactose, 6′-n-acetylneuraminyl-lactose, melibiose, plantain, stachyose, milk derived galacto-oligosaccharide, raffinose, pectin, polygalacturonic acid, and paralacto-n-hexaose.
Soluble fiber (prepared according to 1.1.12.2) and other carbohydrates were tested for their ability to modulate agglutination, attachment and invasion of cells from subjects with IBD.
For the molecule `OC[C@H]1O[C@@H](O[C@@H]2[C@@H](CO)OC(O)(CO)[C@H]2O)[C@H](O)[C@@H](O)[C@H]1O` (mixture of isomers) [lactulose], the inhibition of agglutination entry is given as “non-inhibitory”.
Regarding `CC(=O)N[C@H]1[C@H]([C@H](O)[C@H](O)CO)O[C@@](O[C@H]2[C@@H](O)[C@@H](CO)O[C@@H](O[C@H]3[C@H](O)[C@@H](O)C(O)O[C@@H]3CO)[C@@H]2O)(C(=O)O)C[C@@H]1O` (stereo partly shown) [3′-n-acetylneuraminyl-lactose], the inhibition of agglutination result is reported as “non-inhibitory”.
As to `CC(=O)NC1C(O)CC(OCC2OC(OC3C(CO)OC(O)C(O)C3O)C(O)C(O)C2O)(C(=O)O)OC1C(O)C(O)CO` (stereo not shown) [6′-n-acetylneuraminyl-lactose], the inhibition of agglutination entry was “non-inhibitory”.
With `CC(=O)N[C@H]1C(O)O[C@H](CO)[C@H](O)[C@@H]1O[C@@H]1O[C@H](CO)[C@H](O)[C@H](O)[C@H]1O` (stereo partly shown) [Galβ1-3GalNAc], the inhibition of agglutination entry is listed as “non-inhibitory”.
As for `CC(=O)N[C@H]1[C@H]([C@H](O)[C@H](O)CO)OC(O)(C(=O)O)C[C@@H]1O` (stereo partly shown) [N-acetylneuraminic acid], the inhibition of agglutination entry was “non-inhibitory”.
As for `O=C(CO)N[C@H]1[C@H]([C@H](O)[C@H](O)CO)OC(O)(C(=O)O)C[C@@H]1O` (stereo partly shown) [N-glycolyneuraminic acid], the inhibition of agglutination entry is “non-inhibitory”.
`C[C@H](O)[C@@H](O)[C@@H](O)[C@H](O)C=O` [fucose]: the inhibition of agglutination result is on record as “non-inhibitory”.
Take `O=C[C@H](O)[C@@H](O)[C@@H](O)[C@H](O)CO` [galactose]: the inhibition of agglutination result is reported as “non-inhibitory”.
Then `OC[C@H]1O[C@@H](O[C@H]2[C@H](O)[C@@H](O)C(O)O[C@@H]2CO)[C@H](O)[C@@H](O)[C@H]1O` (stereo partly shown) [lactose], with “non-inhibitory”; and `OC[C@H]1O[C@H](OCC2O[C@@H](O)[C@H](O)[C@@H](O)[C@@H]2O)[C@H](O)[C@@H](O)[C@H]1O` (stereo partly shown) [melibiose], with “non-inhibitory”.
Consider `OC[C@H]1O[C@H](OC[C@H]2O[C@H](O[C@]3(CO)O[C@H](CO)[C@@H](O)[C@@H]3O)[C@H](O)[C@@H](O)[C@@H]2O)[C@H](O)[C@@H](O)[C@H]1O` [raffinose], for which the inhibition of agglutination entry is recorded as “non-inhibitory”.
As for `OC[C@H]1O[C@H](OC[C@H]2O[C@H](OC[C@H]3O[C@H](O[C@]4(CO)O[C@H](CO)[C@@H](O)[C@@H]4O)[C@H](O)[C@@H](O)[C@@H]3O)[C@H](O)[C@@H](O)[C@H]2O)[C@H](O)[C@@H](O)[C@H]1O` [stachyose], the inhibition of agglutination result is given as “non-inhibitory”.
For the molecule bovine submaxillary mucin, the inhibition of agglutination entry was “inhibited”.
For paralacto-n-hexaose, the inhibition of agglutination entry is “non-inhibitory”.
Regarding pectin, the inhibition of agglutination entry is given as “non-inhibitory”.
Consider polygalacturonic acid, for which the inhibition of agglutination entry is reported as “non-inhibitory”.
Consider siaylosyl-Tn, for which the inhibition of agglutination result was “non-inhibitory”.
Consider B1, for which the inhibition of agglutination result is recorded as “non-inhibitory”.
Under B2 stands “non-inhibitory”.
